Data: US11464749B2, “Bismuth-thiol compositions and methods of use” (Microbion Corporation, priority 2018, dated 2022)

Columns and labels:
Test in all cases: Broth microdilution antifungal susceptibility (Example 13)
Format in all cases: cell-based
[1] = system: Candida albicans; conditions: 24 hr
[2] = system: Candida glabrata
[3] = system: Candida krusei
[4] = system: Candida auris
[5] = system: A. niger; conditions: A. niger ATCC 29508; comparators, read time not given
[6] = system: A. terreus; conditions: A. terreus MMX 8229; comparators, read time not given
[7] = system: A. fumigatus; conditions: comparators, read time not given
[8] = system: A. flavus; conditions: comparators, read time not given

SMILES: C[C@@H](c1ncncc1F)[C@](O)(Cn1cncn1)c1ccc(F)cc1F [VORI]
- MIC2 (50% inhibition) ([1]; isolate ATCC 90028 (Susceptible)): ≤0.008 µg/mL
- MIC2 (50% inhibition) ([1]; isolate ATCC 204276 (MICA-R)): ≤0.008 µg/mL
- MIC2 (50% inhibition) ([1]; isolate ATCC MYA-2732 (FLU-R, VORI-I)): 0.5 µg/mL
- MIC2 (50% inhibition) ([1]; isolate MMX 7053 (Susceptible)): ≤0.008 µg/mL
- MIC2 (50% inhibition) ([1]; isolate MMX 7067 (FLU-R, VORI-R)): >8 µg/mL
- MIC2 (50% inhibition) ([1]; isolate MMX 7403 (Susceptible)): ≤0.008 µg/mL
- MIC2 (50% inhibition) ([1]; isolate MMX 7424 (CASP-R, MICA-R)): ≤0.008 µg/mL
- MIC2 (50% inhibition) ([1]; isolate MMX 7430 (Susceptible)): ≤0.008 µg/mL
- MIC2 (50% inhibition) ([1]; isolate MMX 7437 (FLU-I)): 0.12 µg/mL
- MIC2 (50% inhibition) ([1]; isolate MMX 7445 (FLU-R, VORI-R)): >8 µg/mL
- MIC2 (50% inhibition) ([2]; isolate ATCC 90030 (Susceptible)): 0.12 µg/mL
- MIC2 (50% inhibition) ([2]; isolate ATCC MYA-2950 (Susceptible)): 0.12 µg/mL
- MIC2 (50% inhibition) ([2]; isolate MMX 7087 (Susceptible)): 0.03 µg/mL
- MIC2 (50% inhibition) ([2]; isolate MMX 7093 (FLU-R)): 2 µg/mL
- MIC2 (50% inhibition) ([2]; isolate MMX 7101 (FLU-R)): 2 µg/mL
- MIC2 (50% inhibition) ([2]; isolate MMX 7103 (CASP-R, MICA-R)): 0.12 µg/mL
- MIC2 (50% inhibition) ([2]; isolate MMX 7111 (Susceptible)): 0.06 µg/mL
- MIC2 (50% inhibition) ([2]; isolate MMX 7285 (CASP-R, MICA-R)): 1 µg/mL
- MIC2 (50% inhibition) ([2]; isolate MMX 7307 (CASP-R, MICA-R, FLU-R)): 4 µg/mL
- MIC2 (50% inhibition) ([2]; isolate MMX 7549 (Susceptible)): 0.06 µg/mL
- MIC2 (50% inhibition) ([3]; isolate ATCC 6258 (MICA-I)): 0.12 µg/mL
- MIC2 (50% inhibition) ([3]; isolate ATCC 14243 (Susceptible)): 0.06 µg/mL
- MIC2 (50% inhibition) ([3]; isolate ATCC 96685 (Susceptible)): 0.5 µg/mL
- MIC2 (50% inhibition) ([3]; isolate MMX 7125 (Susceptible)): 0.25 µg/mL
- MIC2 (50% inhibition) ([3]; isolate MMX 7128 (Susceptible)): 0.12 µg/mL
- MIC2 (50% inhibition) ([3]; isolate MMX 7141 (Susceptible)): 0.12 µg/mL
- MIC2 (50% inhibition) ([3]; isolate MMX 7153 (MICA-R)): 0.25 µg/mL
- MIC2 (50% inhibition) ([3]; isolate MMX 7155 (Susceptible)): 0.25 µg/mL
- MIC2 (50% inhibition) ([3]; isolate MMX 7563 (Susceptible)): 0.25 µg/mL
- MIC2 (50% inhibition) ([3]; isolate MMX 9878 (MICA-I, VORI-I)): 1 µg/mL
- MIC2 (50% inhibition) ([4]; isolate MMX 9862 (Susceptible)): 0.03 µg/mL
- MIC2 (50% inhibition) ([4]; isolate MMX 9863 (FLU-R, VORI-R)): >8 µg/mL
- MIC2 (50% inhibition) ([4]; isolate MMX 9864 (FLU-R, VORI-R)): 2 µg/mL
- MIC2 (50% inhibition) ([4]; isolate MMX 9865 (FLU-R, VORI-R)): 8 µg/mL
- MIC2 (50% inhibition) ([4]; isolate MMX 9866 (FLU-R, VORI-R)): 8 µg/mL
- MIC2 (50% inhibition) ([4]; isolate MMX 9867 (FLU-R, VORI-R)): 8 µg/mL
- MIC2 (50% inhibition) ([4]; isolate MMX 9868 (FLU-R, VORI-R)): >8 µg/mL
- MIC2 (50% inhibition) ([4]; isolate MMX 9869 (FLU-R, VORI-R)): 2 µg/mL
- MIC2 (50% inhibition) ([4]; isolate MMX 9870 (FLU-R, VORI-R)): 4 µg/mL
- MIC2 (50% inhibition) ([4]; isolate MMX 9871 (Susceptible)): 1 µg/mL
- MIC0 [5]: 0.5 µg/mL
- MIC0 [6]: 0.25 µg/mL
- MIC0 ([7]; A. fumigatus ATCC 204305): 0.5 µg/mL
- MIC0 ([7]; A. fumigatus ATCC MYA-3626): 0.5 µg/mL
- MIC0 ([7]; A. fumigatus MMX 5934): 0.25 µg/mL
- MIC0 ([7]; A. fumigatus MMX 5938): 0.25 µg/mL
- MIC0 ([7]; A. fumigatus MMX 5939): 2 µg/mL
- MIC0 ([8]; A. flavus ATCC 22546): 1 µg/mL
- MIC0 ([8]; A. flavus ATCC 204304): 2 µg/mL
- MIC0 ([8]; A. flavus MMX 7935): 0.5 µg/mL
